The source of these data is patent publication US8697683B2, “Azetidinyl diamides as monoacylglycerol lipase inhibitors” (Janssen Pharmaceutica, NV, priority 2009, dated 2014).

SMILES strings stand for the structures.

In assay [1] the test system is CCI-induced cold hypersensitivity. Put plainly: Chronic Constriction Injury (CCI)-Induced Model of Neuropathic Pain-Cold Acetone-Hypersensitivity Test. The format is in vivo. Particulars: Sprague-Dawley rats, 30 mg/kg p.o., HPβCD vehicle, last time point 4 h. As for the experimental part:
Fourteen to 35 days following CCI surgery, subjects were placed in elevated observation chambers containing wire mesh floors, and five applications of acetone (0.05 mL/application separated by about 5 min) were spritzed onto the plantar surface of the paw using a multidose syringe. An abrupt withdrawal or lifting of the paw was considered a positive response. The number of positive responses was recorded for each rat over the five trials. Following baseline withdrawal determinations, compounds were administered in the indicated vehicle, by the indicated route (see Table 6). The number of withdrawals was re-determined 1 to 4 h after compound administration.

Assay [2] has as its system CFA induced paw pressure hypersensitivity. Put plainly: CFA-Induced Paw Pressure Hypersensitivity. The format is in vivo. Particulars: rat, dose 30, s.c., HPβCD vehicle, time 1 h. On the procedure:
Prior to testing, rats were acclimated to the handling procedure twice a day for a period of two days. […] The endpoint was automatically reached upon hindpaw withdrawal, and the terminal force was noted (in grams). An initial (baseline) response threshold to the mechanical stimulus was recorded for each animal prior to the injection of complete Freund's adjuvant (CFA). Forty hr following intraplantar CFA injection, the response threshold of the animal to the mechanical stimulus was re-evaluated and compared to the animal's baseline response threshold. A response was defined as a withdrawal of the hindpaw, a struggling to remove the hindpaw or vocalization. […] Immediately following the post-CFA threshold assessment, rats were administered the indicated test compound or vehicle. Post-treatment withdrawal thresholds were assessed at 1 h. Paw withdrawal thresholds were converted to percent reversal of hypersensitivity according to the following formula: % reversal=[(post treatment response−predose response)/(baseline response−predose response)]×100.

Another assay relates to tactile allodynia. Put plainly: Spinal Nerve Ligation (SNL) Model of Neuropathic Pain-Tactile Allodynia Test. The format is in vivo, rat. Conditions: L5 SNL rats, 30 mg/kg p.o., HPβCD vehicle, last time point 4 h. An excerpt: For lumbar 5 (L5) spinal nerve ligation (SNL) studies, anesthesia was induced and maintained on isoflurane inhalation. Fur was clipped over the dorsal pelvic area, and a 2-cm skin incision was made just left of midline over the dorsal aspect of the L4-S2 spinal segments, followed by separation of the paraspinal muscles from spinous processes. The transverse process of L6 was then carefully removed, and the L5 spinal nerve was identified. The left L5 spinal nerve was then ligated tightly with 6-0 silk thread, the muscle was sutured with 4-0 vicryl, and the skin was closed with wound clips. Following surgery, s.c. saline (5 mL) was administered. Behavioral testing was performed four weeks post-ligation. Following baseline von Frey determinations to verify the presence of mechanical allodynia, L5 SNL rats were orally administered the indicated vehicle or drug. […] which the paw ipsilateral to the nerve ligation was withdrawn from the application of a series of calibrated von Frey filaments (0.4, 0.6, 1.0, 2.0, 4, 6, 8 and 15 g; Stoelting; Wood Dale, Ill.). Beginning at an intermediate stiffness (2.0 g), filaments were applied to the mid-plantar hind paw for approximately 5 seconds. to determine the response threshold, a brisk paw withdrawal led to the presentation of the next lighter stimulus, whereas a lack of a withdrawal response led to the presentation of the next stronger stimulus. A total of four responses after the first threshold detection were collected. The 50% withdrawal thresholds were interpolated by the method of Dixon, Efficient analysis of experimental observations. Annu. Rev. Pharmacol. […] Neurosci. […] Threshold data from von Frey filament testing were reported as withdrawal threshold in grams. Data were normalized and results are presented as % MPE (maximum possible effect) of the drug calculated according to the following formula: [formula]

The conditions of assay [3]: murine model of acute inflammation; cited from earlier work.

Regarding `O=C(c1ccccc1)N1CCN(C2CN(C(=O)c3ccc(-c4ccccc4)cc3)C2)CC1` [Cpd 5, 1-[1-(Biphenyl-4-ylcarbonyl)azetidin-3-yl]-4-(phenylcarbonyl)piperazine], in assay [1], the peak percent inhibition came out at 26.7%. Turning to `O=C(c1ccc2c(ccn2-c2ccc(F)cc2)c1)N1CC(N2CCN(C(=O)c3nccs3)CC2)C1` [Cpd 487, 1-(4-Fluorophenyl)-5-({3-[4-(1,3-thiazol-2-ylcarbonyl)piperazin-1-yl]azetidin-1-yl}carbonyl)-1H-indole], in assay [2], the percent reversal stood at 61.8%. The same compound yielded a peak percent inhibition in assay [1] of 100%. Moreover, in the assay on tactile allodynia, the “peak % MPE” value is 61.2%.

`O=C(Nc1cccc(-c2ccccc2)c1)OC1CCCCC1` [URB602]: the antinociceptive effect entry in assay [3] was “showed an antinociceptive effect”.
